Laboratory results from PubChem BioAssay AID1259407 (Chemical Carcinogenesis Research Information System (CCRIS), 2018).
Calls of active or inactive are those of the source. The rule behind the calls is not given here.

Test system: CCRIS mutagenicity, Ames/micronucleus/aberration tests
Test: CCRIS mutagenicity studies
[1] = Test System: AMES SALMONELLA TYPHIMURIUM, Strain/Indicator: TA98, Metabolic Activation: HAMSTER, LIVER, S-9, AROCLOR 1254 (10%), Method: PREINCUBATION
[2] = Test System: AMES SALMONELLA TYPHIMURIUM, Strain/Indicator: TA98, Metabolic Activation: NONE, Method: PREINCUBATION
[3] = Test System: AMES SALMONELLA TYPHIMURIUM, Strain/Indicator: TA98, Metabolic Activation: RAT, LIVER, S-9, AROCLOR 1254 (10%), Method: PREINCUBATION
[4] = Test System: AMES SALMONELLA TYPHIMURIUM, Strain/Indicator: TA100, Metabolic Activation: HAMSTER, LIVER, S-9, AROCLOR 1254 (10%), Method: PREINCUBATION
[5] = Test System: AMES SALMONELLA TYPHIMURIUM, Strain/Indicator: TA100, Metabolic Activation: NONE, Method: PREINCUBATION
[6] = Test System: AMES SALMONELLA TYPHIMURIUM, Strain/Indicator: TA100, Metabolic Activation: RAT, LIVER, S-9, AROCLOR 1254 (10%), Method: PREINCUBATION
[7] = Test System: AMES SALMONELLA TYPHIMURIUM, Strain/Indicator: TA1535, Metabolic Activation: HAMSTER, LIVER, S-9, AROCLOR 1254 (10%), Method: PREINCUBATION
[8] = Test System: AMES SALMONELLA TYPHIMURIUM, Strain/Indicator: TA1535, Metabolic Activation: NONE, Method: PREINCUBATION
[9] = Test System: AMES SALMONELLA TYPHIMURIUM, Strain/Indicator: TA1535, Metabolic Activation: RAT, LIVER, S-9, AROCLOR 1254 (10%), Method: PREINCUBATION
[10] = Test System: AMES SALMONELLA TYPHIMURIUM, Strain/Indicator: TA1537, Metabolic Activation: HAMSTER, LIVER, S-9, AROCLOR 1254 (10%), Method: PREINCUBATION
[11] = Test System: AMES SALMONELLA TYPHIMURIUM, Strain/Indicator: TA1537, Metabolic Activation: NONE, Method: PREINCUBATION
[12] = Test System: AMES SALMONELLA TYPHIMURIUM, Strain/Indicator: TA1537, Metabolic Activation: RAT, LIVER, S-9, AROCLOR 1254 (10%), Method: PREINCUBATION
[13] = Test System: AMES SALMONELLA TYPHIMURIUM, Strain/Indicator: TA98, Metabolic Activation: NONE, Method: STANDARD PLATE
[14] = Test System: AMES SALMONELLA TYPHIMURIUM, Strain/Indicator: TA100, Metabolic Activation: RAT, LIVER, S-9, AROCLOR 1254, Method: STANDARD PLATE

Q: What does the source list for `CC(=O)C(N=Nc1ccc(-c2ccc(N=NC(C(C)=O)C(=O)Nc3ccccc3)c(Cl)c2)cc1Cl)C(=O)Nc1ccccc1` (stereo unspecified)?
A: mutagenic call [1]: inactive; negative; mutagenic call [2]: inactive; negative; mutagenic call [3]: inactive; negative; mutagenic call [4]: inactive; negative; mutagenic call [5]: inactive; negative; mutagenic call [6]: inactive; negative; mutagenic call [7]: inactive; negative; mutagenic call [8]: inactive; negative; mutagenic call [9]: inactive; negative; mutagenic call [10]: inactive; negative; mutagenic call [11]: inactive; negative; mutagenic call [12]: inactive; negative; mutagenic call (Test System: AMES SALMONELLA TYPHIMURIUM, Strain/Indicator: TA1538, Metabolic Activation: RAT, LIVER, S-9, AROCLOR 1254, Method: STANDARD PLATE): inactive; negative

Q: `CC(O)CNCC(C)O` (stereo unspecified) was tested. Which mutagenic call [1] did it give?
A: inactive; negative

Q: What about the mutagenic call [2] of the same compound?
A: inactive; negative

Q: What about the mutagenic call [3] of the same compound?
A: inactive; negative

Q: And the mutagenic call [4]?
A: inactive; negative

Q: What about the mutagenic call [5] of the same compound?
A: inactive; negative

Q: And the mutagenic call [6]?
A: inactive; negative

Q: And the mutagenic call [7]?
A: inactive; negative

Q: And the mutagenic call [8]?
A: inactive; negative

Q: And the mutagenic call [9]?
A: inactive; negative

Q: What about the mutagenic call [10] of the same compound?
A: inactive; negative

Q: And the mutagenic call [11]?
A: inactive; negative

Q: And the mutagenic call [12]?
A: inactive; negative

Q: Which results are given for `O=C(Nc1ccc2c(c1)C=C(S(=O)(=O)O)/C(=N/Nc1ccc(N=Nc3ccc(S(=O)(=O)O)cc3)cc1S(=O)(=O)O)C2=O)Nc1ccc2c(c1)C=C(S(=O)(=O)O)/C(=N/Nc1ccc(N=Nc3ccc(S(=O)(=O)O)cc3)cc1S(=O)(=O)O)C2=O`?
A: mutagenic call (Test System: MOUSE LYMPHOMA, Strain/Indicator: L5178Y (TK+/TK-), Metabolic Activation: NONE, Method: SUSPENSION/PLATE): inactive; negative. reevaluation of results: negative; mutagenic call (Test System: MOUSE LYMPHOMA, Strain/Indicator: L5178Y (TK+/TK-), Metabolic Activation: RAT, LIVER, S-9, AROCLOR 1254, Method: SUSPENSION/PLATE): inactive; negative. reevaluation of results: negative

Q: How did the mutagenic call (Test System: CHINESE HAMSTER OVARY, Strain/Indicator: CHO/6-THIOGUANINE, Metabolic Activation: NONE) turn out when `Nc1nc(F)nc2c1ncn2[C@@H]1O[C@H](CO)[C@@H](O)[C@@H]1O` was run?
A: active; positive

Q: For `Clc1ccc(Cl)c(Cl)c1Cl`, which mutagenic call (End Point: IN VITRO CHROMOSOMAL ABERRATIONS, Test System: CHO-LB CELLS, Metabolic Activation: NONE) is on record?
A: inactive; negative

Q: And the mutagenic call (End Point: IN VITRO CHROMOSOMAL ABERRATIONS, Test System: CHO-LB CELLS, Metabolic Activation: RAT, LIVER, S-9, AROCLOR 1254)?
A: inactive; negative

Q: And the mutagenic call (Test System: AMES SALMONELLA TYPHIMURIUM, Strain/Indicator: TA98, Metabolic Activation: HAMSTER, LIVER, S-9, AROCLOR 1254, Method: PREINCUBATION)?
A: inactive; negative

Q: And the mutagenic call [2]?
A: inactive; negative

Q: And the mutagenic call (Test System: AMES SALMONELLA TYPHIMURIUM, Strain/Indicator: TA98, Metabolic Activation: RAT, LIVER, S-9, AROCLOR 1254, Method: PREINCUBATION)?
A: inactive; negative

Q: And the mutagenic call (Test System: AMES SALMONELLA TYPHIMURIUM, Strain/Indicator: TA100, Metabolic Activation: HAMSTER, LIVER, S-9, AROCLOR 1254, Method: PREINCUBATION)?
A: inactive; negative

Q: What about the mutagenic call [5] of the same compound?
A: inactive; negative

Q: What about the mutagenic call (Test System: AMES SALMONELLA TYPHIMURIUM, Strain/Indicator: TA100, Metabolic Activation: RAT, LIVER, S-9, AROCLOR 1254, Method: PREINCUBATION) of the same compound?
A: inactive; negative

Q: And the mutagenic call (Test System: AMES SALMONELLA TYPHIMURIUM, Strain/Indicator: TA1535, Metabolic Activation: HAMSTER, LIVER, S-9, AROCLOR 1254, Method: PREINCUBATION)?
A: inactive; negative

Q: What about the mutagenic call [8] of the same compound?
A: inactive; negative

Q: What about the mutagenic call (Test System: AMES SALMONELLA TYPHIMURIUM, Strain/Indicator: TA1535, Metabolic Activation: RAT, LIVER, S-9, AROCLOR 1254, Method: PREINCUBATION) of the same compound?
A: inactive; negative

Q: What about the mutagenic call (Test System: AMES SALMONELLA TYPHIMURIUM, Strain/Indicator: TA1537, Metabolic Activation: HAMSTER, LIVER, S-9, AROCLOR 1254, Method: PREINCUBATION) of the same compound?
A: inactive; negative

Q: And the mutagenic call [11]?
A: inactive; negative

Q: What about the mutagenic call (Test System: AMES SALMONELLA TYPHIMURIUM, Strain/Indicator: TA1537, Metabolic Activation: RAT, LIVER, S-9, AROCLOR 1254, Method: PREINCUBATION) of the same compound?
A: inactive; negative

Q: For `O=[N+]([O-])c1c2c(c3ccc4cccc5ccc1c3c45)C=CCC2`, which mutagenic call [13] is on record?
A: inactive; negative

Q: And the mutagenic call (Test System: AMES SALMONELLA TYPHIMURIUM, Strain/Indicator: TA98, Metabolic Activation: RAT, LIVER, S-9, AROCLOR 1254, Method: STANDARD PLATE)?
A: inactive; negative

Q: And the mutagenic call (Test System: AMES SALMONELLA TYPHIMURIUM, Strain/Indicator: TA100, Metabolic Activation: NONE, Method: STANDARD PLATE)?
A: inactive; negative

Q: What about the mutagenic call [14] of the same compound?
A: inactive; negative

Q: What does the source list for `ONc1ncnc2nc[nH]c12`?
A: mutagenic call (Test System: AMES SALMONELLA TYPHIMURIUM, Strain/Indicator: HISG46, Metabolic Activation: NONE, Method: STANDARD PLATE): active; positive; mutagenic call (Test System: AMES SALMONELLA TYPHIMURIUM, Strain/Indicator: TA97, Metabolic Activation: NONE, Method: STANDARD PLATE): active; positive; mutagenic call (Test System: AMES SALMONELLA TYPHIMURIUM, Strain/Indicator: TA97, Metabolic Activation: RAT, LIVER, S-9, AROCLOR 1254, Method: STANDARD PLATE): inactive; negative; mutagenic call [13]: inactive; negative; mutagenic call (Test System: AMES SALMONELLA TYPHIMURIUM, Strain/Indicator: TA100(TN5-1,8-DNP1011), Metabolic Activation: NONE, Method: STANDARD PLATE): active; positive; mutagenic call (Test System: AMES SALMONELLA TYPHIMURIUM, Strain/Indicator: TA100(TN5-1,8-DNP1012), Metabolic Activation: NONE, Method: STANDARD PLATE): active; positive; mutagenic call [14]: inactive; negative; mutagenic call (Test System: AMES SALMONELLA TYPHIMURIUM, Strain/Indicator: TA1950, Metabolic Activation: NONE, Method: STANDARD PLATE): active; positive; mutagenic call (Test System: E.COLI, Strain/Indicator: CM871, Metabolic Activation: NONE, Method: STANDARD PLATE): active; positive; mutagenic call (Test System: E.COLI, Strain/Indicator: WP2, Metabolic Activation: NONE, Method: STANDARD PLATE): active; positive
